Experimental data from patent EP4122499A1, “FIBROBLAST ACTIVATION PROTEIN INHIBITORS AND USE THEREOF” (3B Pharmaceuticals GmbH, priority 2021, dated 2023).

Experiments:
Human recombinant FAP [1] = target: T1, Human recombinant FAP (Homo sapiens, UniProt Q12884); assay: FRET-based FAP protease activity assay (human); format: biochemical; set-up: purchased R&D systems 3715-SE; conditions: FRET-peptide substrate, 37°C; for IC50: read-out: pIC50 (Activity) (converted)
T1 sequence (Q12884 1-760): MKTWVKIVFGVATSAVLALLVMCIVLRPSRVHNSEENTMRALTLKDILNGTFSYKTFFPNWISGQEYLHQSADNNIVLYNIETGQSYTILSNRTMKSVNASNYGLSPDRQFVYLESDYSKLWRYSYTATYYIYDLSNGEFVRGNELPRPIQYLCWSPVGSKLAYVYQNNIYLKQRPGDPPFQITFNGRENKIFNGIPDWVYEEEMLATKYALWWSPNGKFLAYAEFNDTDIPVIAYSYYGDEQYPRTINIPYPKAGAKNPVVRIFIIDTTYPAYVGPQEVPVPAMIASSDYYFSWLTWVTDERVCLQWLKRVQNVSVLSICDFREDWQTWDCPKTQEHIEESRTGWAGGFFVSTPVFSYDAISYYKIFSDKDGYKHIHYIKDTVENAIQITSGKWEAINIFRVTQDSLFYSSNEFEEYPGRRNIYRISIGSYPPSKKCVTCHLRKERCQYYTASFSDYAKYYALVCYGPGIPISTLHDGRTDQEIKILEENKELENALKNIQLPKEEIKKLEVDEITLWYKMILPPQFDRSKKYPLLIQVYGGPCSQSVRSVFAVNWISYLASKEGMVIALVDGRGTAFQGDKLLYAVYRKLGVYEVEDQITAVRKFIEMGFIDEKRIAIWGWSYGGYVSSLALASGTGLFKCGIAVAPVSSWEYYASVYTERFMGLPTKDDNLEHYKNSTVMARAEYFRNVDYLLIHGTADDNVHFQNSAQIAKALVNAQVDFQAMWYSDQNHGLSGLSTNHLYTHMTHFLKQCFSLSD
Procedure: (§1) In order to determine the inhibitory activity a FRET-based FAP protease activity assay was established.
25 µL of a 30 µM substrate solution, diluted in assay buffer, was added. […] Four parameter logistic (4PL) curve fitting and pIC50 calculations were performed using ActivityBase software (IDBS).

[2] = target: T2, FAP-expressing human WI-38 fibroblasts (Homo sapiens, UniProt Q12884); assay: Competitive FACS binding assay (displacement of Cy5-labeled FAP inhibitor 3BP-2935); conditions: 3 nM Cy5-labeled 3BP-2935, 4°C, 1 hour
T2 construct: FAP-expressing human WI-38 fibroblasts (ECACC 90020107) were cultured in EMEM; host or cells: WI-38 human fibroblasts
T2 sequence (Q12884 1-760): T1 sequence (Q12884 1-760)
Procedure: In order to determine binding of compounds according to the present invention to FAP-expressing cells, a competitive FACS binding assay was established.
Cells were diluted in FACS buffer to a final concentration of 100.000 cells per ml and 200 µl of the cell suspension are transferred to a u-shaped non-binding 96-well plate (Greiner).
Cell were washed twice with FACS buffer (see above) and resuspended in 200 µl FACS buffer. Cells were analyzed in an Attune NxT flow cytometer (Thermo Fisher Scientific). Median fluorescence intensities (Cy5 channel) was calculated by Attune NxT software and plotted against test compound concentrations. Four parameter logistic (4PL) curve fitting and pIC50 calculations were performed using ActivityBase software.

Human recombinant FAP [3] = target: T1, Human recombinant FAP; assay: Surface plasmon resonance assay (Biacore T200, single cycle kinetics); format: binding; conditions: SPR, 25°C; for pKD (Biacore) / Kd: 1:1 Langmuir binding model; for HL [min] (Biacore): half-life; for Kd: read-out: pKD (Biacore) (converted)
Procedure: Surface plasmon resonance studies were performed using a Biacore™ T200 SPR system (Cytiva, formerly GE Healthcare). Briefly, polarized light is directed towards a gold-labeled sensor surface, and minimum intensity reflected light is detected. The angle of reflected light changes as molecules bind and dissociate. […] Test compounds are contacted with the loaded surface, and a real-time interaction profile with the FAP ligand is recorded in a sensorgram. In real-time, the association and dissociation of a binding interaction is measured, enabling calculation of association and dissociation rate constants and the corresponding affinity constants. Importantly, a background response is generated due to the difference in the refractive indices of the running and sample buffers, as well as unspecific binding of the test compounds to the flow cell surface. This background is measured and subtracted by running the sample on a control flow cell coated with the same density of capture antibody in the absence of immobilized FAP. Furthermore, baseline drift correction of the binding data is performed, which is caused by slow dissociation of the captured FAP from the immobilized antibody. This drift is measured by injecting running buffer through a flow cell with the antibody and FAP immobilized to the sensor surface.
Biacore™ CM5 sensor chips were used. […] A 150 µL aliquot was transferred into plastic vials and placed into the sample rack of the Biacore™ T200 instrument. Amine Coupling Kit Reagent solutions were transferred into plastic vials and placed into the sample rack: 90 µL of 0.4 M 1-ethyl-3-(3-dimethylaminopropyl)carbodiimide (EDC), and 90 µL of 0.1 M N-hydroxysuccinimide (NHS). A 130 µL aliquot of 1 M ethanolamine-HCl, pH 8.5, was transferred into plastic vials and placed into the sample rack. The Biacore™ liquid system was set-up as follows: Separate bottles containing distilled water (1 L), Running Buffer (500 mL), as well as an empty bottle for waste were placed onto the buffer tray. A preinstalled program for immobilization was used, with an immobilization level of 7000 RU. Immobilization was performed at 25°C. The immobilization procedure of anti-FAP antibodies was performed, as described in the Table 5. Table 5: Immobilization protocol for anti-FAP antibodies used on the CM5 sensor chip.
Human recombinant FAP was diluted in Running Buffer to a final concentration of 20 µg/mL. A 100 µL aliquot of human FAP-Working-Solution was transferred into plastic vials and placed into a sample rack. A 0.5 mM Compound-Stock-Solution was prepared by dissolving each compound in DMSO. For each test compound, Compound-Stock-Solutions were diluted in Running Buffer (HBST) at 500 nM and further diluted with HBST-DMSO Buffer (0.1% DMSO). SPR binding analyses for binary complexes were performed in SCK mode at 25°C. Following three SCK measurements, a baseline drift was assessed by injecting running buffer through a flow cell, with the antibody and FAP immobilized to the sensor surface. Table 6: Protocol for assessing the binding kinetics.
For each test compound, SPR raw data in the form of resonance units (RU) were plotted as sensorgrams using the Biacore™ T200 control software. The signal from the blank sensorgram was subtracted from that of the test compound sensorgram (blank corrected). The blank corrected sensorgram was corrected for baseline drift by subtracting the sensorgram of a SCK run without the test compound (running buffer only). The association rate (kon), dissociation rate (koff), dissociation constant (KD), and t1/2 were calculated from Blank-normalized SPR data using the 1:1 Langmuir binding model from the Biacore™ T200 evaluation software. Raw data and fit results were imported as text files in IDBS. The pKD value (negative decadic logarithm of dissociation constant) was calculated in the IDBS excel template.

Recombinant mouse FAP = target: T3, Recombinant mouse FAP (Mus musculus, UniProt P97321); assay: FRET-based FAP protease activity assay (mouse); format: biochemical; conditions: FRET-peptide substrate, 37°C; for IC50: read-out: pIC50 (mouseFAP) (converted)
T3 construct: purchased R&D systems 8647-SE
T3 sequence (P97321 1-761): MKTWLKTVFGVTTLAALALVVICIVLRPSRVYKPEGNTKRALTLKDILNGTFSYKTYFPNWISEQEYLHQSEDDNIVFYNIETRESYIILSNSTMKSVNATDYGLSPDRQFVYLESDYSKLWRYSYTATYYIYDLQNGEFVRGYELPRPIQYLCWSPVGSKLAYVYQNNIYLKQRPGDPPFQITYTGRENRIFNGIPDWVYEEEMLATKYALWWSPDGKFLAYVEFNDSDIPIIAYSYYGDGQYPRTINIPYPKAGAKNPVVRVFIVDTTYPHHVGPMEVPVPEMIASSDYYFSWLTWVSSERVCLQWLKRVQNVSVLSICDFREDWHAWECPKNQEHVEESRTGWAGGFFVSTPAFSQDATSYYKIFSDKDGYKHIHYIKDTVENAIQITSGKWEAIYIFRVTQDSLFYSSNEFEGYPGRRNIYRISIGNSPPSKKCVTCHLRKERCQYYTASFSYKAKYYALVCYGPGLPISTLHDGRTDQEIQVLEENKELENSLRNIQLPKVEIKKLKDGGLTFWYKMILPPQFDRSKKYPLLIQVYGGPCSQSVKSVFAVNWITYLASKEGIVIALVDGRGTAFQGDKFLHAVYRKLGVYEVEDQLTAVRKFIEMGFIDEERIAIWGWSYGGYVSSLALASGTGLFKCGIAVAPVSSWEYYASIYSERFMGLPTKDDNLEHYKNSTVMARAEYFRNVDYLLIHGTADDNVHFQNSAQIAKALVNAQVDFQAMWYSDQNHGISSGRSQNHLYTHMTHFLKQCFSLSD
Procedure: as §1
25 µL of a 30 µM substrate solution, diluted in assay buffer, was added. […] Four parameter logistic (4PL) curve fitting and pIC50 calculations were performed using ActivityBase software.

Recombinant human DPP4 = target: T4, Recombinant human DPP4 (Homo sapiens, UniProt P27487); assay: DPP4 protease activity assay; format: biochemical; conditions: 20 µM GP-AMC substrate; read-out: pIC50 (DPP4) (converted)
T4 construct: purchased R&D systems 9168-SE
Procedure: The PREP activity assay was performed using the FACS buffer (PBS including 1% FBS, Sigma-Aldrich, Cat# D8537). […] The DPP4 activity assay was performed in DPP assay buffer (25 mM Tris, pH 8.0).
Four parameter logistic (4PL) curve fitting and pIC50 calculations were performed using ActivityBase software.

T4 sequence (P27487 whole entry): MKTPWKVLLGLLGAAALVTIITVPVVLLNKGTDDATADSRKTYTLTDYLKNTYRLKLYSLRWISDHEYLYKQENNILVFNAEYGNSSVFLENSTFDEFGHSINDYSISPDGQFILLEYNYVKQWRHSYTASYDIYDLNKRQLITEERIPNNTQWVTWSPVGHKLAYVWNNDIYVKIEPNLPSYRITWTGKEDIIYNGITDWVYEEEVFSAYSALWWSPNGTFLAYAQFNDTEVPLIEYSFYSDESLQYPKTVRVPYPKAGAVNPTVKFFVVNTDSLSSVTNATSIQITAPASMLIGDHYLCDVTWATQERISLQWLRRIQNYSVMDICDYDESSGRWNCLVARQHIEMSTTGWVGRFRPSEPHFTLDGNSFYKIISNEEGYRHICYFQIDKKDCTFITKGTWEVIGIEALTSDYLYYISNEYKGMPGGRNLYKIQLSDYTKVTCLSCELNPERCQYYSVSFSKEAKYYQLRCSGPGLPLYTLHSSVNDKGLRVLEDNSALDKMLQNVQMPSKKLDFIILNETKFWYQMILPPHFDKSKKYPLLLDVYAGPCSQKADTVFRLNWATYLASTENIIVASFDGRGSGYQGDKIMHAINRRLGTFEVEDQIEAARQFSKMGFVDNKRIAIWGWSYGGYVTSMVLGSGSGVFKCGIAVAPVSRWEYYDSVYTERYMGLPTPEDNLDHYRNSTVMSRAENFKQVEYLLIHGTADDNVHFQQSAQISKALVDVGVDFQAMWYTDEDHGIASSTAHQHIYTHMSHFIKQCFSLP

| SMILES | HL [min] (Biacore) (Human recombinant FAP [3]) | IC50 (Human recombinant FAP [1]) | IC50 [2] | further results |
| --- | --- | --- | --- | --- |
| N#C[C@@H]1CC(F)(F)CN1C(=O)CNC(=O)c1ccnc2c(OCCCCc3ccccc3)cccc12 | – | – | – | pIC50 (Activity) (Human recombinant FAP [1]): 8.2; pIC50 (FACS) [2]: 7.7 |
| N#C[C@@H]1CC(F)(F)CN1C(=O)CNC(=O)c1ccnc2ccc(-c3ccc(C(=O)NCCN4CCN(C(=O)CN5CCN(CC(=O)O)CCN(CC(=O)O)CCN(CC(=O)O)CC5)CC4)nc3)cc12 | >500 min | – | – | pKD (Biacore) (Human recombinant FAP [3]): >11 |
| N#C[C@@H]1CCCN1C(=O)CNC(=O)c1ccnc2ccc(-n3cc(C(=O)NCCCNC(=O)CN4CCN(CC(=O)O)CCN(CC(=O)O)CCN(CC(=O)O)CC4)nn3)cc12 | 95 min | – | – | – |
| CS(=O)(=O)c1ccc(-c2ccc3nccc(C(=O)NCC(=O)N4CC(F)(F)C[C@H]4C#N)c3c2)c(CO)c1 | >500 min | 0.501 nM | 2 nM | Kd (Human recombinant FAP [3]): < 0.01 nM |
| O=C(NCC(=O)N1CCC[C@H]1C(=O)CO)c1ccnc2ccccc12 | 3.1 min | – | – | pIC50 (mouseFAP) (Recombinant mouse FAP): 8.2 |
| Cc1cc2nccc(C(=O)NCC(=O)N3CC(F)(F)C[C@H]3C#N)c2cc1-c1ccc(S(C)(=O)=O)cc1 | – | 0.501 nM | 1.26 nM | IC50 (Recombinant mouse FAP): 1.58 nM |
| N#C[C@@H]1CCCN1C(=O)CNC(=O)c1ccnc2ccccc12 | – | – | – | IC50 (Recombinant human DPP4): > 1000 nM |
| O=C(O)CN1CCN(CC(=O)O)CCN(CC(=O)NCCCS(=O)(=O)c2ccc(-c3ccc4nccc(C(=O)NCC(=O)N5CCC[C@H]5C(=O)c5nc6ccccc6o5)c4c3)cc2)CCN(CC(=O)O)CC1 [drawing 317] | >500 min | – | – | pKD (Biacore) (Human recombinant FAP [3]): >11; pIC50 (mouseFAP) (Recombinant mouse FAP): 8.6 |
| Cc1c(-c2ccc(S(C)(=O)=O)cc2)ccc2nccc(C(=O)NCC(=O)N3CC(F)(F)C[C@H]3C#N)c12 | – | 0.501 nM | 2 nM | IC50 (Recombinant mouse FAP): 2 nM |
| CC(C)(C)OC(=O)N1CC[N+]([O-])(CCCOc2ccc3c(c2)c(C(=O)NCC(=O)N2CC(F)(F)C[C@H]2C#N)cc[n+]3[O-])CC1 | – | 2.51 nM | 10 nM | – |
| CC(C)(C)OC(=O)N1CCN(CCCOc2ccc3nccc(C(=O)NCC(=O)N4CC(F)(F)C[C@H]4C#N)c3c2)CC1 | – | 1.58 nM | 3.98 nM | – |
| N#C[C@@H]1CC(F)(F)CN1C(=O)CNC(=O)c1ccnc2ccccc12 | 10.4 min | – | – | – |
| N#C[C@@H]1CC(F)(F)CN1C(=O)CNC(=O)c1ccnc2c(OCC3CC3)cccc12 | – | 3.16 nM | 15.8 nM | – |
| N#C[C@@H]1CCCN1C(=O)CNC(=O)c1ccnc2ccc(-c3ccc(C(=O)O)cc3)cc12 | 11 min | 1.58 nM | 2.51 nM | Kd (Human recombinant FAP [3]): 0.2 nM; IC50 (Recombinant human DPP4): > 1000 nM |
| O=C(NCC(=O)N1CCC[C@H]1B(O)O)c1ccnc2ccccc12 | – | 1.26 nM | 3.16 nM | – |
| COc1cccc2c(C(=O)NCC(=O)N3CC(F)(F)C[C@H]3C#N)ccnc12 | – | 6.31 nM | 20 nM | – |
| CC(C)(C)OC(=O)N1CC[N+]([O-])(CCCOc2ccc3nccc(C(=O)NCC(=O)N4CC(F)(F)C[C@H]4C#N)c3c2)CC1 | – | 1 nM | 2.51 nM | – |
| CCOc1cccc2c(C(=O)NCC(=O)N3CC(F)(F)C[C@H]3C#N)ccnc12 | – | 3.16 nM | 20 nM | – |
| CC(C)(C)OC(=O)N1CCN(CCCOc2ccc3c(c2)c(C(=O)NCC(=O)N2CC(F)(F)C[C@H]2C#N)cc[n+]3[O-])CC1 | – | 2.51 nM | 10 nM | – |
| Cn1ncnc1C(=O)[C@@H]1CCCN1C(=O)CNC(=O)c1ccnc2ccccc12 | – | 316 nM | > 1000 nM | – |
| Cc1cccc2c(C(=O)NCC(=O)N3CC(F)(F)C[C@H]3C#N)ccnc12 | – | 12.6 nM | 25.1 nM | – |
| O=C(NCC(=O)N1CCC[C@H]1C(=O)c1ncn[nH]1)c1ccnc2ccccc12 | – | 63.1 nM | 200 nM | IC50 (Recombinant mouse FAP): 79.4 nM |
